# Assay results published in patent US20220281848A1, “PYRAZOLE-SUBSTITUTED PYRROLIDINONES AS HERBICIDES” (FMC Corporation, priority 2019, published 2022).
# Key:
# Type in all cases: in vivo
# [1] = system: redroot pigweed (Amaranthus retroflexus, AMARE); experiment: Test A pre-emergence, redroot pigweed; conditions: after 13 d
# How it was run: (§1)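 Damage rated visually at 13 d on a 0–100 scale (100 = plant killed). Pre-emergence spray one day after sowing; doses 15.625, 62.5 or 250 g/ha from an acetone/water 50:50 formulation with 0.5% Tween 20. Glasshouse at 24/16° C., 14 h photoperiod, 65% humidity.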
# wheat = experiment: Test D pre-emergence, wheat seed treated with a herbicide safener; conditions: 100=total damage, 0=no damage
# How it was run: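 Herbicidal injury on safener-protected cereals: application timings were one day after sowing for pre-emergence and about 12 days of cultivation for post-emergence. Assessment came 20 DAA or 15 d later respectively, on a scale where 100 meant total damage.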
# [2] = system: velvetleaf (Abutilon theophrasti, ABUTH); experiment: Test A pre-emergence, velvetleaf; conditions: after 13 d
# How it was run: as §1
# plants = experiment: Test D post-emergence, other plants of Tables D2 and D4; conditions: "Cereals" Postemergent, evaluated after 15 d
# How it was run: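 Seeds treated with herbicide safener; sown in soil; glasshouse, 16 h light, 65% humidity. Sprayed day 1 (pre) or ~day 12 (post). Spray in 0.2% v/v adjuvant. Scored 0–100 damage: 20 DAA pre, 15 d post.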
smiles,measurement,setting,value
CN1CC(c2cc(C(F)(F)F)n(C)n2)C(C(=O)Nc2ccc(F)cc2C(C)(F)F)C1=O (racemic) [Compound 26],damage to plant (100=total damage; 0=no damage) AMARE,[1]; Pre-Emergence at 62.5 g/ha,0
same,damage to plant (100=total damage; 0=no damage) AMARE,[1]; Pre-Emergence at 250 g/ha,0
same,"damage to plant, TRZAW","wheat; rate 15, 20 DAA",0
same,"damage to plant, TRZAW","wheat; rate 30, 20 DAA",0
same,"damage to plant, TRZAW","wheat; rate 60, 20 DAA",0
same,"damage to plant, TRZAW","wheat; rate 130, 20 DAA",10
same,"damage to plant, TRZAW","wheat; rate 250, 20 DAA",70
same,"damage to plant, TRZAW","wheat; rate 500, 20 DAA",30
same,damage to plant (100=total damage; 0=no damage) ABUTH,[2]; Pre-Emergence at 62.5 g/ha,0
same,damage to plant (100=total damage; 0=no damage) ABUTH,[2]; Pre-Emergence at 250 g/ha,0
same,ALOMY damage rating (100=total damage to plant; 0=no damage to plant),plants; Rates 130,0
same,ALOMY damage rating (100=total damage to plant; 0=no damage to plant),plants; Rates 250,0
same,ALOMY damage rating (100=total damage to plant; 0=no damage to plant),plants; Rates 500,40
same,AVEFA damage rating (100=total damage to plant; 0=no damage to plant),plants; Rates 130,0
same,AVEFA damage rating (100=total damage to plant; 0=no damage to plant),plants; Rates 250,10
same,AVEFA damage rating (100=total damage to plant; 0=no damage to plant),plants; Rates 500,60
same,BEAVA damage rating (100=total damage to plant; 0=no damage to plant),plants; Rates 130,0
same,BEAVA damage rating (100=total damage to plant; 0=no damage to plant),plants; Rates 250,0
same,BEAVA damage rating (100=total damage to plant; 0=no damage to plant),plants; Rates 500,0
same,BROTE damage rating (100=total damage to plant; 0=no damage to plant),plants; Rates 130,0
same,BROTE damage rating (100=total damage to plant; 0=no damage to plant),plants; Rates 250,0
same,BROTE damage rating (100=total damage to plant; 0=no damage to plant),plants; Rates 500,0
same,BRSNN damage rating (100=total damage to plant; 0=no damage to plant),plants; Rates 130,0
same,BRSNN damage rating (100=total damage to plant; 0=no damage to plant),plants; Rates 250,0
same,BRSNN damage rating (100=total damage to plant; 0=no damage to plant),plants; Rates 500,0
same,CHEAL damage rating (100=total damage to plant; 0=no damage to plant),plants; Rates 130,0
same,CHEAL damage rating (100=total damage to plant; 0=no damage to plant),plants; Rates 250,0
same,CHEAL damage rating (100=total damage to plant; 0=no damage to plant),plants; Rates 500,10
same,GALAP damage rating (100=total damage to plant; 0=no damage to plant),plants; Rates 130,0
same,GALAP damage rating (100=total damage to plant; 0=no damage to plant),plants; Rates 250,0
same,GALAP damage rating (100=total damage to plant; 0=no damage to plant),plants; Rates 500,60
same,HORVW damage rating (100=total damage to plant; 0=no damage to plant),plants; Rates 130,0
same,HORVW damage rating (100=total damage to plant; 0=no damage to plant),plants; Rates 250,0
same,HORVW damage rating (100=total damage to plant; 0=no damage to plant),plants; Rates 500,40
same,KCHSC damage rating (100=total damage to plant; 0=no damage to plant),plants; Rates 130,0
same,KCHSC damage rating (100=total damage to plant; 0=no damage to plant),plants; Rates 250,0
same,KCHSC damage rating (100=total damage to plant; 0=no damage to plant),plants; Rates 500,0
same,LOLPE damage rating (100=total damage to plant; 0=no damage to plant),plants; Rates 130,0
same,LOLPE damage rating (100=total damage to plant; 0=no damage to plant),plants; Rates 250,0
same,LOLPE damage rating (100=total damage to plant; 0=no damage to plant),plants; Rates 500,60
same,POAAN damage rating (100=total damage to plant; 0=no damage to plant),plants; Rates 130,30
same,POAAN damage rating (100=total damage to plant; 0=no damage to plant),plants; Rates 250,20
same,POAAN damage rating (100=total damage to plant; 0=no damage to plant),plants; Rates 500,80
same,POLCO damage rating (100=total damage to plant; 0=no damage to plant),plants; Rates 130,0
same,POLCO damage rating (100=total damage to plant; 0=no damage to plant),plants; Rates 250,0
same,POLCO damage rating (100=total damage to plant; 0=no damage to plant),plants; Rates 500,0
same,SINAR damage rating (100=total damage to plant; 0=no damage to plant),plants; Rates 130,0
same,SINAR damage rating (100=total damage to plant; 0=no damage to plant),plants; Rates 250,0
same,SINAR damage rating (100=total damage to plant; 0=no damage to plant),plants; Rates 500,10
same,STEME damage rating (100=total damage to plant; 0=no damage to plant),"plants; STEME, Rates 130",0
